From the supplement of paper PMC10307832

How the values were obtained:
Experiment in all cases: relative viability (nuclei count vs DMSO), 5 days (fraction); higher = more cells survive
Ruxolitinib + AZD7762 = compound: N#CC[C@H](C1CCCC1)n1cc(-c2ncnc3[nH]ccc23)cn1 [Ruxolitinib] + NC(=O)Nc1cc(-c2cccc(F)c2)sc1C(=O)N[C@H]1CCCNC1 [AZD7762] (partner 0.2 µM)
Procedure, shortened: (§1)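 Dosing by pin tool came one day after lung cancer cell lines were seeded in 1536-well plates, using either one drug or a fixed anchor-drug dose plus five library-drug doses (not always all listed) in √10 steps. After 5 days, nuclei were counted on 4× images. Relative viability is treated-well nuclei count divided by vehicle-well nuclei count, and values are medians of duplicate plates.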

Ruxolitinib + OSI-027 = compound: N#CC[C@H](C1CCCC1)n1cc(-c2ncnc3[nH]ccc23)cn1 [Ruxolitinib] + COc1cccc2cc(-c3nc([C@H]4CC[C@H](C(=O)O)CC4)n4ncnc(N)c34)[nH]c12 [OSI-027] (partner 0.5 µM)
Procedure, shortened: as §1

Ruxolitinib + Pemetrexed = compound: N#CC[C@H](C1CCCC1)n1cc(-c2ncnc3[nH]ccc23)cn1 [Ruxolitinib] + Nc1nc2[nH]cc(CCc3ccc(C(=O)N[C@@H](CCC(=O)O)C(=O)O)cc3)c2c(=O)[nH]1 [Pemetrexed] (partner 0.2 µM)
Procedure, shortened: as §1

Vismodegib + Linsitinib = compound: CS(=O)(=O)c1ccc(C(=O)Nc2ccc(Cl)c(-c3ccccn3)c2)c(Cl)c1 [Vismodegib] + C[C@]1(O)C[C@@H](c2nc(-c3ccc4ccc(-c5ccccc5)nc4c3)c3c(N)nccn32)C1 [Linsitinib] (partner 1 µM)
Procedure, shortened: as §1

Cell Line: NCI-H1975
- relative viability (Ruxolitinib + AZD7762; first compound 0.08 µM): 0.669
- relative viability (Ruxolitinib + AZD7762; first compound 0.253 µM): 0.643
- relative viability (Ruxolitinib + AZD7762; first compound 0.8 µM): 0.675
- relative viability (Ruxolitinib + AZD7762; first compound 2.53 µM): 0.67
- relative viability (Ruxolitinib + AZD7762; first compound 8 µM): 0.501
- relative viability (Ruxolitinib + OSI-027; first compound 0.08 µM): 0.734
- relative viability (Ruxolitinib + OSI-027; first compound 0.253 µM): 0.699
- relative viability (Ruxolitinib + OSI-027; first compound 0.8 µM): 0.639
- relative viability (Ruxolitinib + OSI-027; first compound 2.53 µM): 0.485
- relative viability (Ruxolitinib + OSI-027; first compound 8 µM): 0.473
- relative viability (Ruxolitinib + Pemetrexed; first compound 0.08 µM): 0.283
- relative viability (Ruxolitinib + Pemetrexed; first compound 0.253 µM): 0.334
- relative viability (Ruxolitinib + Pemetrexed; first compound 0.8 µM): 0.329
- relative viability (Ruxolitinib + Pemetrexed; first compound 2.53 µM): 0.318
- relative viability (Ruxolitinib + Pemetrexed; first compound 8 µM): 0.266
- relative viability (Vismodegib + Linsitinib; first compound 0.08 µM): 0.87
- relative viability (Vismodegib + Linsitinib; first compound 0.253 µM): 0.919
- relative viability (Vismodegib + Linsitinib; first compound 0.8 µM): 0.975
- relative viability (Vismodegib + Linsitinib; first compound 2.53 µM): 0.908
- relative viability (Vismodegib + Linsitinib; first compound 8 µM): 0.977

Cell Line: HOP-62
- relative viability (Ruxolitinib + AZD7762; first compound 0.08 µM): 0.437
- relative viability (Ruxolitinib + AZD7762; first compound 0.253 µM): 0.796
- relative viability (Ruxolitinib + AZD7762; first compound 0.8 µM): 0.564
- relative viability (Ruxolitinib + AZD7762; first compound 2.53 µM): 0.627
- relative viability (Ruxolitinib + AZD7762; first compound 8 µM): 0.704
- relative viability (Ruxolitinib + OSI-027; first compound 0.08 µM): 0.874
- relative viability (Ruxolitinib + OSI-027; first compound 0.253 µM): 0.724
- relative viability (Ruxolitinib + OSI-027; first compound 0.8 µM): 0.91
- relative viability (Ruxolitinib + OSI-027; first compound 2.53 µM): 0.825
- relative viability (Ruxolitinib + OSI-027; first compound 8 µM): 0.824
- relative viability (Ruxolitinib + Pemetrexed; first compound 0.08 µM): 0.324
- relative viability (Ruxolitinib + Pemetrexed; first compound 0.253 µM): 0.363
- relative viability (Ruxolitinib + Pemetrexed; first compound 0.8 µM): 0.299
- relative viability (Ruxolitinib + Pemetrexed; first compound 2.53 µM): 0.314
- relative viability (Ruxolitinib + Pemetrexed; first compound 8 µM): 0.323
- relative viability (Vismodegib + Linsitinib; first compound 0.08 µM): 0.988
- relative viability (Vismodegib + Linsitinib; first compound 0.253 µM): 0.873
- relative viability (Vismodegib + Linsitinib; first compound 0.8 µM): 1.16
- relative viability (Vismodegib + Linsitinib; first compound 2.53 µM): 0.748
- relative viability (Vismodegib + Linsitinib; first compound 8 µM): 0.979

Cell Line: HCC-15
- relative viability (Ruxolitinib + AZD7762; first compound 0.08 µM): 1.09
- relative viability (Ruxolitinib + AZD7762; first compound 0.253 µM): 0.878
- relative viability (Ruxolitinib + AZD7762; first compound 0.8 µM): 1.23
- relative viability (Ruxolitinib + AZD7762; first compound 2.53 µM): 1.12
- relative viability (Ruxolitinib + AZD7762; first compound 8 µM): 1.17
- relative viability (Ruxolitinib + OSI-027; first compound 0.08 µM): 0.569
- relative viability (Ruxolitinib + OSI-027; first compound 0.253 µM): 0.494
- relative viability (Ruxolitinib + OSI-027; first compound 0.8 µM): 0.751
- relative viability (Ruxolitinib + OSI-027; first compound 2.53 µM): 0.522
- relative viability (Ruxolitinib + OSI-027; first compound 8 µM): 0.541
- relative viability (Ruxolitinib + Pemetrexed; first compound 0.08 µM): 0.223
- relative viability (Ruxolitinib + Pemetrexed; first compound 0.253 µM): 0.227
- relative viability (Ruxolitinib + Pemetrexed; first compound 0.8 µM): 0.212
- relative viability (Ruxolitinib + Pemetrexed; first compound 2.53 µM): 0.194
- relative viability (Ruxolitinib + Pemetrexed; first compound 8 µM): 0.203
- relative viability (Vismodegib + Linsitinib; first compound 0.08 µM): 0.896
- relative viability (Vismodegib + Linsitinib; first compound 0.253 µM): 0.876
- relative viability (Vismodegib + Linsitinib; first compound 0.8 µM): 0.834
- relative viability (Vismodegib + Linsitinib; first compound 2.53 µM): 1.01
- relative viability (Vismodegib + Linsitinib; first compound 8 µM): 0.897

Cell Line: A-427
- relative viability (Ruxolitinib + AZD7762; first compound 0.08 µM): 0.821
- relative viability (Ruxolitinib + AZD7762; first compound 0.253 µM): 0.763
- relative viability (Ruxolitinib + AZD7762; first compound 0.8 µM): 0.729
- relative viability (Ruxolitinib + AZD7762; first compound 2.53 µM): 0.453
- relative viability (Ruxolitinib + AZD7762; first compound 8 µM): 0.508
- relative viability (Ruxolitinib + OSI-027; first compound 0.08 µM): 0.434
- relative viability (Ruxolitinib + OSI-027; first compound 0.253 µM): 0.465
- relative viability (Ruxolitinib + OSI-027; first compound 0.8 µM): 0.566
- relative viability (Ruxolitinib + OSI-027; first compound 2.53 µM): 0.364
- relative viability (Ruxolitinib + OSI-027; first compound 8 µM): 0.439
- relative viability (Ruxolitinib + Pemetrexed; first compound 0.08 µM): 1
- relative viability (Ruxolitinib + Pemetrexed; first compound 0.253 µM): 0.927
- relative viability (Ruxolitinib + Pemetrexed; first compound 0.8 µM): 0.967
- relative viability (Ruxolitinib + Pemetrexed; first compound 2.53 µM): 1.04
- relative viability (Ruxolitinib + Pemetrexed; first compound 8 µM): 0.893
- relative viability (Vismodegib + Linsitinib; first compound 0.08 µM): 1.12
- relative viability (Vismodegib + Linsitinib; first compound 0.253 µM): 1.09
- relative viability (Vismodegib + Linsitinib; first compound 0.8 µM): 1.11
- relative viability (Vismodegib + Linsitinib; first compound 2.53 µM): 1.11
- relative viability (Vismodegib + Linsitinib; first compound 8 µM): 1.12
